Laboratory results reported in patent US10449221B2, “Differentiation of stem cells into thyroid tissue” (TRUSTEES OF BOSTON UNIVERSITY, priority 2015, dated 2019).
“Also recorded” adds a separate entry of the source.

What was measured:
pSmad1/5 = assay: Western blot of pSmad1/5 content in mouse foregut explants; assay type: cell-based; settings: 24 hours of treatment, DMH-1 1.5 μM vs vehicle
Description: (§1) Whole foreguts were dissected from E8.5 embryos (6-8 somite pairs) in Hank's balanced salt solution (HBSS) then explanted onto 8 μm pore size Whatman Nucleopore Track-Etch Membranes (Millipore). Explants were cultured for 2-3 days in a base medium (BGJb medium (Gibco)+10% fetal bovine serum (FBS, Sigma) and 0.2 mg/ml ascorbic acid) containing either the BMPR inhibitor DMH-1 (1.5 μM, Tocris) or DMSO as a vehicle control. Whole mount immunostaining was performed using a modification of the method of Ahnfelt-Ronne et al. (Ahnfelt-Ronne et al., 2007). The primary antibodies used were: guinea pig anti-Nkx2-1 (Seven Hill Bioreagents; 1:500), rabbit anti-Pax8 (Protein Tech; 1:500) and rat anti-Ecad (R&D; 1:2000). After staining, samples were cleared with Murray's clear (2:1 benzyl benzoate: benzyl alcohol) and imaged using a Nikon A1Rsi inverted laser confocal microscope. Imaris software was used to analyze the images. DMH-1 treated and control explants were harvested and lysed in Laemmli buffer after 24 hours of treatment. Lysates were electrophoresed on a 10-20% Tris-glycine gel under reducing conditions, Western blotted, and probed with antibodies (Cell Signaling) to detect total Smad1/5 and pSmad 1/5 content; β-actin content served as a loading control.

mouse foregut explants = assay: Mouse E8.5 whole foregut explant culture, whole mount immunostaining for Nkx2-1 and Pax8; assay type: cell-based; settings: 6-8 somite foreguts, 2-3 days, DMH-1 1.5 μM vs DMSO
Description: as §1

Xenopus embryos = assay: Xenopus whole embryo culture in pathway antagonists, in-situ hybridization for thyroid markers; assay type: in vivo; settings: for induction of thyroid markers foxe1, nkx2-1, pax2 and hhex: inhibitor from stage NF13 until NF20, DMH-1 40 μM, SU5402 10 μM; for nkx2-1 induction in the developing thyroid primordium: inhibitor from stage NF13 through NF35, XAV939 50 μM, BMS493 10 μM
Description: Xenopus embryos were generated by in vitro fertilization and assayed by in situ hybridization or confocal immunostaining as previously described (Rankin et al., 2015). Small molecule inhibitors were dissolved in DMSO according to manufacturer's instructions and added to the embryo culture saline at the following working concentrations: 10 μM SU5402 (Tocris Bioscience), 40 μM DMH-1 (Sigma), 50 μM XAV939 (Sigma) and 10 μM BMS493 (Tocris Bioscience). Foregut explants were dissected from stage NF15 and treated with Dispase (BD Pharmingen) for 15 minutes and then the mesoderm was manually removed. Foregut endoderm was then cultured in 0.5× Modified Barth's Saline with 0.1% BSA with or without 500 ng/ml rhFGF2 and 50 ng/ml rhBMP4 (R&D systems).

[1] = system: Nkx2-1GFP+; Pax8tdTomato trace+ iPSC-derived cells; assay: Lineage specification of bifluorescent reporter iPSC line by day 14; assay type: cell-based, mouse; settings: data not shown; for efficiency of lineage specification of Nkx2-1GFP+; Pax8tdTomato trace+ cells: Wnt inhibitor added to induction media; for efficiency of lineage specification, percent yield of GFP+/tdTomato+ cells: factor withdrawn or removed from the Nkx2-1 induction media
Nkx2-1mCherry ESC line = assay: Maturation of ESC-derived Nkx2-1mCherry+ thyroid progenitors, marker mRNA by RT-PCR; assay type: cell-based, mouse; settings: for thyroid specific gene expression: media used from D22 to D26, RT-PCR at Day 26
Description: Further differentiation and maturation of Nkx2-1+ sorted cells was performed in either 2D or 3D culture conditions, as indicated in the text. For 2D differentiation cells sorted on day 14 were replated and grown for 8 more days in cSFDM supplemented with 250 ng/ml mFGF2, 100 ng/ml hFGF10 and 100 ng/ml Heparin Sodium Salt. […] During the first 48 hours after sorting media was supplemented with 10 μM Y27632 (Sigma Y0503). From day 20-26 5 μg/ml ITS was included in the media. […] For cultures longer than 30 days, cells were splitted using Dispase (Corning 354235) on Day 30 and re-embedded in pure Matrigel, and fed with thyroid maturation media until the harvest day indicated in the text. RNA (for FIGS. 1 to 3 and 11c) was extracted from cells using the RNeasy kit (Qiagen 74104) following the manufacturer's protocol. 150 ng of RNA was reverse transcribed to cDNA using TaqMan reverse transcription reagents (Applied Biosystems N8080234) and the manufacturer's protocol. cDNA template was diluted 1:4, and 2 μl of the diluted template was used per 25 μl real time PCR reaction using Taqman Fast Universal PCR Master Mix (Applied Biosystems 4352042) and run in technical triplicates up to 40 cycles of PCR on the Applied Biosystems StepOne machine. Alternatively, 1 μl of the diluted template was used per 13 μl real time reaction on the Applied Biosystems 7900HT Real Time PCR System. Relative gene expression, normalized to 18S control, was calculated as fold change in 18S-normalized gene expression, over baseline, using the 2^(-ΔΔCT) method. Baseline, defined as fold change=1, was set to undifferentiated embryonic stem cell levels, or if undetected, a cycle number of 40 was assigned to allow fold change calculations. For FIGS. 5 and 11 (except FIG. 11c) total RNA was extracted from cultured cells using Stat-60 reagent (Tel-Test Cs-502). Then, 150 ng of total RNA was reverse transcribed using a SuperScript Vilo cDNA synthesis kit from Invitrogen. qPCR was performed in duplicate using the 800HT thermal cycler (Applied Biosystems). Relative mRNA levels were calculated using the standard curve method and normalized to peptidylprolyl isomerase A (cyclophilin). Cyclophilin expression was quantified with custom-made primers and probe (Forward primer: [NT]. ID. NO: 1), Reverse primer: [NT]. ID. NO: 2; Probe: [NT]. ID. NO: 3).

[2] = system: ESC-derived definitive endoderm; assay: Nkx2-1+ endoderm induction from ESC-derived endoderm, specification media day 6-14, flow cytometry on day 14; assay type: cell-based, mouse; settings: for Nkx2-1+ cell specification by day 14: factor(s) present in induction media day 6-14; for Nkx2-1+ endodermal induction efficiency: sequential withdrawal of each individual factor from the WFKBE+2 cocktail
Description: Definitive endoderm induction was performed in complete serum-free differentiation medium (cSFDM) consisting of 75% IMDM (Invitrogen 12440) and 25% Ham's Modified F12 medium (Cellgro 10-080-CV) supplemented with N2 and B27+RA (Invitrogen 17502-048 and 17504-44), 0.05% BSA (Invitrogen 15260-037), […] L-glutamine (Invitrogen 25030-081), 0.05 mg/ml ascorbic acid (Sigma A4544) and 4.5×10^-4M MTG (Sigma M6145) as previously described (Gouon-Evans et al., 2006, Longmire et al., 2012). Undifferentiated ESCs were trypsinized to form a single cell suspension and plated onto Petri dishes (500,000 cells/10 cm dish) resulting in the formation of embryoid bodies (EBs) over 60 hours. EBs were dissociated by trypsinization (0.05%, 1 min, 37° C.) and plated as single cells into cSFDM supplemented with 50 ng/ml Activin A (R&D systems 338-AC) for an additional 60 hours. For Anteriorization of endoderm, on day 5 (120 total hours of differentiation) EBs were plated onto p100 Petri dishes in Nog/SB media: cSFDM supplemented with 100 ng/ml mNoggin (R&D 1967-NG) and 10 μM SB431542 (Sigma S4317) as previously described (Longmire et al., 2012). For Nkx2-1+ endoderm induction, EBs were plated on gelatin coated 6 well plates at the equivalent density of 200,000 cells/well in Specification media: cSFDM supplemented as stated in the text with 100 ng/ml mWnt3a (R&D 1324-WN), 10 ng/ml hFGF10 (R&D 345-FG), 10 ng/ml mKGF (R&D 5028-KG), 10 ng/ml mBMP4 (R&D 5020-BP), 20 ng/ml hEGF (R&D 236-EG), 250 ng/ml mFGF2 (R&D 3139-FB) and 100 ng/ml Heparin Sodium Salt (Sigma […]2-1mCherry+ cells, or the populations otherwise indicated in the text were sorted using MoFlo or […] II SORP high speed cell sorters and replated onto gelatin-coated 24 well plates on day 12-14 at a density of 5×10^4 cells/well. Where indicated in the text, small molecule inhibitors were dissolved in DMSO according to manufacturer's instructions and added to the culture media from day 6 to 14 at the following working concentrations: Dorsomorphin 4 μM (Sigma P5499), PD98059 20 μM, SB203580 10 μM (both from Cell Signaling Technology, PHZ1164 and 5633), and LY294002 […] (Promega V1201).

Molecule: CC(C)Oc1ccc(-c2cnc3c(-c4ccnc5ccccc45)cnn3c2)cc1 [DMH-1]
- phosphorylation of SMAD1/5/8, pSmad1/5 content (pSmad1/5): substantial reduction in pSmad1/5 content; also recorded: marked reduction in phosphorylation of SMAD1/5/8
- induction of Nkx2-1 and Pax8, thyroid bud formation (mouse foregut explants): no thyroid bud was apparent; also recorded: blocked induction of both Nkx2-1 and Pax8
- induction of thyroid markers foxe1, nkx2-1, pax2 and hhex (Xenopus embryos): abrogated induction of all four thyroid markers in the vast majority of embryos

Molecule: Oc1nc(-c2ccc(C(F)(F)F)cc2)nc2c1CSCC2 [XAV939, reference compound]
- efficiency of lineage specification of Nkx2-1GFP+; Pax8tdTomato trace+ cells [1]: no significant impact
- nkx2-1 induction in the developing thyroid primordium (Xenopus embryos): normal nkx2-1 induction

Molecule: Cc1c[nH]c(/C=C2\C(=O)Nc3ccccc32)c1CCC(=O)O [SU5402]
- induction of thyroid markers foxe1, nkx2-1, pax2 and hhex (Xenopus embryos): abrogated induction of all four thyroid markers in the vast majority of embryos

Molecule: Nc1ncnc2c1ncn2[C@@H]1O[C@@H]2COP(=O)(O)O[C@H]2[C@H]1O [cAMP, cyclic adenosine monophosphate, reference compound]
- thyroid specific gene expression (Nkx2-1mCherry ESC line): increase thyroid specific gene expression
- maturation marker expression (Nkx2-1mCherry ESC line; withdrawal of the factor from the DCI+K cocktail, day 22-26): adversely affected maturation

Molecule: CC1(C)CC=C(C#Cc2ccccc2)c2cc(/C=C/c3ccc(C(=O)O)cc3)ccc21 [BMS493]
- nkx2-1 induction in the developing thyroid primordium (Xenopus embryos): normal nkx2-1 induction

Molecule: thyroid stimulating hormone [TSH]
- Nis, Tsh-r, and Tpo expression (Nkx2-1mCherry ESC line; TSH added after lineage specification, day 14-22): significant augmentation of Nis, Tsh-r, and Tpo expression
- expression of lineage markers Nkx2-1 and Pax8 (Nkx2-1mCherry ESC line; TSH added day 14-22, data not shown): no significant change
- efficiency of thyroid lineage specification (Nkx2-1mCherry ESC line; TSH added prior to lineage specification, day 9-12, data not shown): no detectable effect
- Nis and Tsh-r expression (Nkx2-1mCherry ESC line; additional 3 days of culture maturation in the presence of TSH (Day 25 vs Day 22)): further augmentation of Nis and Tsh-r expression
- thyroid specific gene expression (Nkx2-1mCherry ESC line): increase thyroid specific gene expression
- thyroid maturation marker Nis (Nkx2-1mCherry ESC line; substitution of TSH for cAMP in the DCI+K media, day 22-26): most robust augmentation of the thyroid maturation marker, Nis

Molecule: fibroblast growth factor 2 (basic) [FGF2]
- efficiency of lineage specification, percent yield of GFP+/tdTomato+ cells [1]: significant decrease in the percent yield of GFP+/tdTomato+ cells
- Nkx2-1+ cell specification by day 14 [2]: induced low numbers of Nkx2-1+ cells with little thyroid competence
- Nkx2-1+ endodermal induction efficiency [2]: indispensible for efficient Nkx2-1+ endodermal induction

B1: bone morphogenetic protein 4 (protein, UniProt P12644 293-408, looked up)
Bone morphogenetic protein 4: SPKHHSQRARKKNKNCRRHSLYVDFSDVGWNDWIVAPPGYQAFYCHGDCPFPLADHLNSTNHAIVQTLVNSVNSSIPKACCVPTELSAISMLYLDEYDKVVLKNYQEMVVEGCGCR
notes: growth factor in specification media
- efficiency of lineage specification, percent yield of GFP+/tdTomato+ cells [1]: significant decrease in the percent yield of GFP+/tdTomato+ cells
- Nkx2-1+ cell specification by day 14 [2]: induced low numbers of Nkx2-1+ cells with little thyroid competence
- Nkx2-1+ endodermal induction efficiency [2]: indispensible for efficient Nkx2-1+ endodermal induction

B2: Dkk1: Wnt inhibitor (protein, UniProt O94907 32-266, looked up)
Dickkopf-related protein 1: TLNSVLNSNAIKNLPPPLGGAAGHPGSAVSAAPGILYPGGNKYQTIDNYQPYPCAEDEECGTDEYCASPTRGGDAGVQICLACRKRRKRCMRHAMCCPGNYCKNGICVSSDQNHFRGEIEETITESFGNDHSTLDGYSRRTTLSSKMYHTKGQEGSVCLRSSDCASGLCCARHFWSKICKPVLKEGQVCTKHRRKGSHGLEIFQRCYCGEGLSCRIQKDHHQASNSSRLHTCQRH
- efficiency of lineage specification of Nkx2-1GFP+; Pax8tdTomato trace+ cells [1]: no significant impact
